Source: ChEMBL document CHEMBL1921668, “Discovery of new aminopyrimidine-based phosphoinositide 3-kinase beta (PI3Kβ) inhibitors with selectivity over PI3Kα” (Bioorg Med Chem Lett, 2011)

Columns and labels:
[1] = biological target: T1, Phosphatidylinositol 4,5-bisphosphate 3-kinase catalytic subunit beta isoform (Homo sapiens, UniProt P42338); assay: Inhibition of PI3Kbeta assessed as enzyme activity at 10 uM relative to control; parameters: scale not given: the % may be the effect or the level left
Target sequence in this assay (P42338 whole entry, looked up, canonical isoform): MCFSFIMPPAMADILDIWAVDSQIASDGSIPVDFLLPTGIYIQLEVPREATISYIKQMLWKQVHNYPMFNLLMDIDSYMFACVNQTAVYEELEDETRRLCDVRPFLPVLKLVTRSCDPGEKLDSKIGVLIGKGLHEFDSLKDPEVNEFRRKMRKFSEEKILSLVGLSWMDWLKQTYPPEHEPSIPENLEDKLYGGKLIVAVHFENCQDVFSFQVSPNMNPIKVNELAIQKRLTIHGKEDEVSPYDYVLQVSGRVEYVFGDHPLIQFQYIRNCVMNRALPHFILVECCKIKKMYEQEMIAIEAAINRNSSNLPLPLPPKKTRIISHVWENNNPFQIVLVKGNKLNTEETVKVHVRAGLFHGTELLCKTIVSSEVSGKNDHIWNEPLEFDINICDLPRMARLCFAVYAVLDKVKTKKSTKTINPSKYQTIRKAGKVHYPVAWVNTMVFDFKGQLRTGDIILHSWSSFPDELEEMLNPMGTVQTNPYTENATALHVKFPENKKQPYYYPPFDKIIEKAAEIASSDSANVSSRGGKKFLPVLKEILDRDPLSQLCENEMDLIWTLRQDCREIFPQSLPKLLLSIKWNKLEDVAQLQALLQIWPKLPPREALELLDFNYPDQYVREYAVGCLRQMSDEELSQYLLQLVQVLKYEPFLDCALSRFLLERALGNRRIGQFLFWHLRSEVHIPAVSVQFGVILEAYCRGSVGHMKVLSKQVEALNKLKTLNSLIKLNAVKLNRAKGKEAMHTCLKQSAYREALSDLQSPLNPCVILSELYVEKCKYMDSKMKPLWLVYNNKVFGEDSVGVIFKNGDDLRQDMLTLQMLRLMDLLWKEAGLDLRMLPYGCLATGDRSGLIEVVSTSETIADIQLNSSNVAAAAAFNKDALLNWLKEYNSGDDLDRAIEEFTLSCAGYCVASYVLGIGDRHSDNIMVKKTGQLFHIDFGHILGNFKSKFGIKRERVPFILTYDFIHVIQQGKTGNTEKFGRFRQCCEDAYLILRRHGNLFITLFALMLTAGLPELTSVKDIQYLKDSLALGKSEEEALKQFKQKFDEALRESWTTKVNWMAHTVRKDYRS

[2] = biological target: T2, Phosphatidylinositol 4,5-bisphosphate 3-kinase catalytic subunit alpha isoform (Homo sapiens, UniProt P42336); assay: Inhibition of PI3Kalpha assessed as enzyme activity at 10 uM relative to control; parameters: scale not given: the % may be the effect or the level left
[3] = biological target: T1, Phosphatidylinositol 4,5-bisphosphate 3-kinase catalytic subunit beta isoform; assay: Binding affinity to PI3Kbeta
Target sequence in this assay (P42338 whole entry, canonical isoform): as the sequence (P42338 whole entry, looked up, canonical isoform) above

[4] = biological target: Phosphatidylinositol 4,5-bisphosphate 3-kinase catalytic subunit gamma isoform (Homo sapiens) (UniProt P48736); assay: Inhibition of PI3Kgamma assessed as enzyme activity relative to control; parameters: scale not given: the % may be the effect or the level left
[5] = biological target: T3, Phosphatidylinositol 4,5-bisphosphate 3-kinase catalytic subunit delta isoform (Homo sapiens) (UniProt O00329); assay: Inhibition of PI3Kdelta assessed as enzyme activity relative to control; parameters: concentration or dose not given beside the values
T3 sequence (whole entry): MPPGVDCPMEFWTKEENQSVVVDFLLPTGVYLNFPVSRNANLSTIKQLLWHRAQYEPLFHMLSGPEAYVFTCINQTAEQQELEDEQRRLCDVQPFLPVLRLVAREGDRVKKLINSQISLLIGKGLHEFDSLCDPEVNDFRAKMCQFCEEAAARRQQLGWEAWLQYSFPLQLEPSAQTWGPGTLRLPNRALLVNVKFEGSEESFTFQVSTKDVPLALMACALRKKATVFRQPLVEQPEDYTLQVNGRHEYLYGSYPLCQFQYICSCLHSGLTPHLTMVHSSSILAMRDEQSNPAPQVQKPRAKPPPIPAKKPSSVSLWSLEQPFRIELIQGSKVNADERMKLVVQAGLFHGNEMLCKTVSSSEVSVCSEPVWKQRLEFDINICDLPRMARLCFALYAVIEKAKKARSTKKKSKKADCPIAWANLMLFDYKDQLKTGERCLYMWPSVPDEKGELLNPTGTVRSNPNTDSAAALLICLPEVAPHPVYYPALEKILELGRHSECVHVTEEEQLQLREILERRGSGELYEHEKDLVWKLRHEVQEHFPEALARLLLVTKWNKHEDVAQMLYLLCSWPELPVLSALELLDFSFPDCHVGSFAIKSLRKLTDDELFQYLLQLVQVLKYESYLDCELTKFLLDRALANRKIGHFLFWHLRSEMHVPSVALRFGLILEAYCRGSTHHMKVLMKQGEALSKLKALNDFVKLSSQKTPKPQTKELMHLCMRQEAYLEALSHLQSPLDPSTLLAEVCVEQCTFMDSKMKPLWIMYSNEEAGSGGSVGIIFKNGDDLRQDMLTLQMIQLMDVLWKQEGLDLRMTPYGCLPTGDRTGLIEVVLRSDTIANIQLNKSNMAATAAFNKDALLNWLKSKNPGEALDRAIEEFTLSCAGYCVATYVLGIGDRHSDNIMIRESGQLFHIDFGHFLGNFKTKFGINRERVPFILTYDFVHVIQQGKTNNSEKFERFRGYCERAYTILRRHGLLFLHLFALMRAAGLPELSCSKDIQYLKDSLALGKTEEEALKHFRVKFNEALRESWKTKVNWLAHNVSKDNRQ

[6] = biological target: Serine/threonine-protein kinase mTOR (Homo sapiens) (UniProt P42345); assay: Inhibition of mTOR assessed as enzyme activity relative to control; parameters: concentration or dose not given beside the values
T47D = assay: Antiproliferative activity against human T47D cells by MTT assay; type: functional, cell-based
[7] = biological target: T2, Phosphatidylinositol 4,5-bisphosphate 3-kinase catalytic subunit alpha isoform; assay: Binding affinity to PI3Kalpha

T2 sequence (P42336 whole entry, canonical isoform): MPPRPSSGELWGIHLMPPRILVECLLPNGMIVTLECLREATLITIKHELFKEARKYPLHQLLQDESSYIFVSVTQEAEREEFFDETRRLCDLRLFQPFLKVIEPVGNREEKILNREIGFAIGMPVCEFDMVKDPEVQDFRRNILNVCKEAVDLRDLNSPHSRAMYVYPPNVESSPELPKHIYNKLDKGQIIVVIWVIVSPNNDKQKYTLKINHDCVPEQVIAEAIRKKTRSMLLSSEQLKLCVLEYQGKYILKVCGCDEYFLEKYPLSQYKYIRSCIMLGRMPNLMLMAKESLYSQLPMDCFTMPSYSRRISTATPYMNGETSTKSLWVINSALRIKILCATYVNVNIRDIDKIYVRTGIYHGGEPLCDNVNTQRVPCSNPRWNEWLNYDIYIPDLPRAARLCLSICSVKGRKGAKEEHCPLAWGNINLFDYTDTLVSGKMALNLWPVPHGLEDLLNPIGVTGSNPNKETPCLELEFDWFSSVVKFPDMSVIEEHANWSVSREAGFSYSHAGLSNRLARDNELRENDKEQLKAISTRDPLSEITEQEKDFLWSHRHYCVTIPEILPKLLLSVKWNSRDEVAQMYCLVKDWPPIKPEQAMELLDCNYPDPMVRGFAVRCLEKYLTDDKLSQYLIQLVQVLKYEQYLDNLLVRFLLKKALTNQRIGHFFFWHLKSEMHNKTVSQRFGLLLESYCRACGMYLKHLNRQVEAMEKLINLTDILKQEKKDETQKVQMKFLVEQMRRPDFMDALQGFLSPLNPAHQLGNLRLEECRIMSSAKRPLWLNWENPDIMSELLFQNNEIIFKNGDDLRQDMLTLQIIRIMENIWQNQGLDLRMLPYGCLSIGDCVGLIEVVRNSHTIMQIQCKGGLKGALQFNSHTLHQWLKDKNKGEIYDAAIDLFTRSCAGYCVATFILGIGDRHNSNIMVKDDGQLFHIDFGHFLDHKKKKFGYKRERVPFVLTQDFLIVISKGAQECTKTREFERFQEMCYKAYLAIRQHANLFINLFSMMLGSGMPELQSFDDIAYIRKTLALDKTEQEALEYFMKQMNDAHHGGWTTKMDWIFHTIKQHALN
Chain of Phosphatidylinositol 4,5-bisphosphate 3-kinase catalytic subunit gamma isoform (Homo sapiens) (P48736 whole entry, looked up, canonical isoform): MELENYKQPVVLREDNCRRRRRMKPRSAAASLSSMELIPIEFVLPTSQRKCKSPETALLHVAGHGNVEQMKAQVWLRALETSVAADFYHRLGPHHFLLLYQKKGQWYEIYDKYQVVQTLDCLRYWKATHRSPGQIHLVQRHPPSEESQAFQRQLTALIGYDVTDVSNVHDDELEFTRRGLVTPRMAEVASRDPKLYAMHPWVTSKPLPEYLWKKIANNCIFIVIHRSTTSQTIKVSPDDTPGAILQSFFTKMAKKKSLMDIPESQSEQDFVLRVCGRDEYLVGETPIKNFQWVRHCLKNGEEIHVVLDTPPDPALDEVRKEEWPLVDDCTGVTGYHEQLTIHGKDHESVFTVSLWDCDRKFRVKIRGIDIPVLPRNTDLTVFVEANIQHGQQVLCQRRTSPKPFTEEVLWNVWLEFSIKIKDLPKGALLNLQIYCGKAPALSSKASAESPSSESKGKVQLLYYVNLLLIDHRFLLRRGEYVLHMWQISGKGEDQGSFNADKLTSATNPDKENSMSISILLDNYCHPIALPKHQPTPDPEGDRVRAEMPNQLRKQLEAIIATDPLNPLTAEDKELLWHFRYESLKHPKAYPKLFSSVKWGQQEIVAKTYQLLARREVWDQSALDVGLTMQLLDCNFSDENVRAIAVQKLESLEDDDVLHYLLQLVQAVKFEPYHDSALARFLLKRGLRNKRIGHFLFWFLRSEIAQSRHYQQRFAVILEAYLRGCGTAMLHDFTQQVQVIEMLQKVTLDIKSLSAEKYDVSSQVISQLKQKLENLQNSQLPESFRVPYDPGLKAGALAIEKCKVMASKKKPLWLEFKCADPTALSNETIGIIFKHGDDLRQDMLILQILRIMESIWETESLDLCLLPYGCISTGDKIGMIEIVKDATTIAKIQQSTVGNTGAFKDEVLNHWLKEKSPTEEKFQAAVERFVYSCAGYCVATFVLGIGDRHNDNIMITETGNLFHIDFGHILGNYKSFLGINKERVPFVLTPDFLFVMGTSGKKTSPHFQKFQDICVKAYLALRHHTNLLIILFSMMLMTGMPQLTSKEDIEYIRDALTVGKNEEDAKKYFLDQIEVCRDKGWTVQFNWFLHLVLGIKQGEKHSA

Activity [1] | Activity [2] | Kd [3] | Activity [4] | Activity [5] | Activity [6] | IC50 (T47D) | Kd [7] | Compound
0.5% | 17% | 100 nM | 8.2% | 3.4% | 76% | 4700 nM | – | Cc1ccc(S(=O)(=O)Nc2cncc(-c3cnc(N)nc3)c2)cc1
34% | 100% | – | – | – | – | – | – | CC(=O)Nc1ncc(-c2cncc(NS(=O)(=O)c3ccccc3)c2)cn1
1.7% | 87% | 500 nM | 20% | 4.3% | 39% | – | – | COc1ccc(S(=O)(=O)Nc2cncc(-c3cnc(N)nc3)c2)cc1
1.2% | 30% | 430 nM | 9.6% | 0.9% | 41% | – | – | Nc1ncc(-c2cncc(NS(=O)(=O)c3cccc(C(F)(F)F)c3)c2)cn1
0% | 0% | – | – | – | – | – | – | Nc1ncc2cc(-c3cncc(NS(=O)(=O)c4ccccc4)c3)ccc2n1
66% | 100% | – | – | – | – | – | – | CN(C)c1ncc(-c2cncc(NS(=O)(=O)c3ccccc3)c2)cn1
69% | 97% | > 20000 nM | 98% | 65% | 79% | – | – | CC(=O)Nc1cncc(-c2cnc(N)nc2)c1
0.7% | 42% | 250 nM | 5.3% | 0.1% | 78% | – | – | Cc1ccc(S(=O)(=O)Nc2cncc(-c3cnc(N)nc3)c2)cc1[N+](=O)[O-]
0.7% | 22% | 220 nM | 7.2% | 4.7% | 56% | 8500 nM | – | Nc1ncc(-c2cncc(NS(=O)(=O)c3ccc(F)cc3F)c2)cn1
28% | 62% | 5200 nM | 43% | 38% | 67% | – | – | CS(=O)(=O)Nc1cncc(-c2cnc(N)nc2)c1
86% | 98% | > 40000 nM | 100% | 82% | 53% | – | – | Nc1cncc(-c2cnc(N)nc2)c1
7.4% | 52% | – | – | – | – | – | – | O=S(=O)(Nc1cncc(-c2cccnc2)c1)c1ccccc1
4.9% | 56% | – | – | – | – | – | – | O=S(=O)(Nc1cncc(-c2cnc3[nH]ccc3c2)c1)c1ccccc1
5.2% | 66% | – | – | – | – | – | – | Cc1nc(N)ncc1-c1cncc(NS(=O)(=O)c2ccccc2)c1
5.2% | 39% | – | – | – | – | – | – | CNc1ncc(-c2cncc(NS(=O)(=O)c3ccccc3)c2)cn1
39% | 95% | – | – | – | – | – | – | O=S(=O)(Nc1cncc(-c2cnc3nccn3c2)c1)c1ccccc1
1% | 92% | 230 nM | 25% | 4.2% | 96% | – | > 40000 nM | Nc1ncc(-c2cncc(NS(=O)(=O)c3ccc4ccccc4c3)c2)cn1
1.6% | 18% | 550 nM | 6.7% | 9.5% | 68% | – | – | Nc1ncc(-c2cncc(NS(=O)(=O)c3ccc([N+](=O)[O-])cc3)c2)cn1
18% | 89% | – | – | – | – | – | – | Cc1nc(N)nc(C)c1-c1cncc(NS(=O)(=O)c2ccccc2)c1
0.6% | 4% | – | – | – | – | – | – | O=S(=O)(Nc1cncc(-c2ccc3nccn3c2)c1)c1ccccc1
1.4% | 60% | 360 nM | 24% | 4.2% | 74% | 9600 nM | – | Nc1ncc(-c2cncc(NS(=O)(=O)c3ccccc3)c2)cn1
